# Test results reported in publication PMC12165799, “Antimicrobial peptide developed with machine learning sequence optimization targets drug resistant Staphylococcus aureus in mice” (The Journal of Clinical Investigation, 2025).
# Read-outs that look alike come from different tables or passages of the source.
# Experiments:
# [1] = test system: S. aureus JE2 and transposon mutants; assay type: cell-based, Staphylococcus aureus
# Procedure: 305 Minimal inhibitory concentration (MIC) assay
# We made serial dilutions of 10×
# We determined the MIC using OD600
# Accordingly, we added 150 mM NaCl,
# 319 established protocol (5).
# 542 Use of S. aureus transposon mutants
# 543 We used S. aureus transposon mutants from the Nebraska Transposon Mutant Library
# 544 (NTML)(21). The library has a collection of 1,952 strains, each containing a single mutation within
# 545 a nonessential gene of USA300, an epidemic community-associated MRSA (CA-MRSA) isolate
# 546 (21). We selected a transposon insertion mutant from the NTML library in the fmtc gene, which
# 547 catalyzes the transfer of a lysyl group from L-lysyl-tRNA to membrane-bound
# 548 phosphatidylglycerol (PG) to produce lysylphosphatidylglycerol (LPG) (11). LPG imparts a less-
# 549 negative charge to the overall membrane potential and thus contributes to bacterial virulence by
# 550 contributing a resistance mechanism against cationic AMPs (11).
# [2] = test system: S. aureus MW2 skin infection; test: Skin-abraded murine infection, established infection model, bacterial load; assay type: in vivo, mice; parameters: Bacterial load from skin specimens, established infection model / bacterial load in skin, Sup. Fig. 12: unit not given here; details: for Reduction of S. aureus MW2 vs vehicle, established infection model: single dose 24 hours after inoculation, n = 8; for bacterial load in skin, Sup. Fig. 12: mice
# Procedure: 599 In vivo murine skin infection and treatment
# 600 We used a topical skin-abraded murine infection model with minor modifications to test
# 601 the in vivo efficacy of the CIT-8 peptide (25). We performed all mouse studies following the
# 602 protocol approved by the Institutional Animal Care and Use Committee. In brief, we anesthetized
# 603 female C57BL/6 mice (6 weeks) (Jackson Laboratory, Bar Harbor, ME, USA) with ketamine-
# 604 xylazine (90 mg/kg ketamine and 10 mg/kg xylazine) via intraperitoneal injection. We shaved the
# 605 dorsal side of the mice in the middle of the back (area=2 cm2). To disrupt skin integrity, we tape-
# 606 stripped with Tensoplast® seven times in succession, replacing the tape each time, resulting in
# 607 visibly damaged skin. We infected the damaged skin area with 1 × 10^7 CFU of S. aureus MW2
# 608 (exponential phase bacteria in PBS) with an inoculum of 50 µl using a pipette tip. Ten minutes
# 609 (prophylactic model) and 24 h (established model) after bacterial inoculation, we applied 30 mg
# 610 of 1 and 2% (w/w) CIT-8 ointment in a white petroleum jelly base (Cat no. 19-090-843, Fisher
# 611 Scientific, MA, USA) to the skin. We also included animal groups treated with only petroleum
# 612 jelly or with 2% commercial mupirocin ointment as negative and positive controls, respectively.
# 613 For pain management, we used the analgesic buprenorphine SR (0.05 mg/kg).
# 614 After 24 h of treatment, we euthanized the animals, separated the skin from the underlying
# 615 fascia and muscle tissue, and excised about 2 cm2 of skin from the infected area. We ground the
# 616 skin in 1ml of PBS buffer (Gibco, MD, USA). We serially diluted 100 µl of the solution in PBS
# 617 and plated it on Remel™ TSA plates (Fisher, MA, USA) to estimate viable colony counts after 18
# 618 h of incubation at 37 °C. Further, we added 10 µl of EDTA-Free, protease inhibitor cocktail Set III
# 619 (Millipore Sigma, MA, USA) to 500 µl of the ground skin PBS solution for cytokine estimation.
# 620 The Cytokine Core, LLC (Indianapolis, IN, USA) performed the cytokine concentration analysis
# [3] = test system: S. aureus MW2 infected skin; test: Histopathology of skin (H&E, Gram stain), prophylactic model; assay type: in vivo, mice; details: 2% w/w formulation, H&E and Gram stains
# Text: 235 Supplemental Figure 13. Histopathology of vehicle and CIT-8 treated skin in the skin-abraded
# 236 prophylactic murine model infected with S. aureus MW2.
# 237 Panel A: Representative 10× images of H&E-stained murine skin sections from all n=32 animals
# 238 (n=8 per group). Scale bars: 0.05 mm. Panel B: Representative 40× images of Gram-stained murine
# 239 skin sections. Scale bars: 0.01 mm. White arrows (1-5) indicate key histopathological features; 1:
# 240 Disorganized epidermal layer with epidermal disruption; 2: Dense infiltration of
# 241 polymorphonuclear (PMN) and mononuclear (MN) cells in both the epidermis and dermis,
# 242 indicative of heightened inflammation; 3: More intact epidermis; 4: Reduced numbers of PMN
# 243 and MN cells; 5: Bacterial patches.
# (1 picture or pasted object on this page, not shown here)
substance,measurement,setting,value
H-GLFKVIKKLLKVI-NH2 [CIT-8],Reduction in MIC against mprF transposon mutant compared with JE2,[1],2 fold
same,MIC,"[1]; JE2, Supplemental Table 6",4 µg/mL
same,MIC for pdx-transposon mutant versus parent strain JE2,[1]; also with 100 μM supplemental external vitamin B6,same MIC
same,MIC,[1]; mprF transposon mutant (NTML),2 µg/mL
same,"Bacterial load from skin specimens, established infection model","[2]; 1% ointment 24 hours after infection, animal 1",573476702
same,"Bacterial load from skin specimens, established infection model","[2]; 1% ointment 24 hours after infection, animal 2",722891566
same,"Bacterial load from skin specimens, established infection model","[2]; 1% ointment 24 hours after infection, animal 3",990099010
same,"Bacterial load from skin specimens, established infection model","[2]; 1% ointment 24 hours after infection, animal 4",73752712
same,"Bacterial load from skin specimens, established infection model","[2]; 1% ointment 24 hours after infection, animal 5",440528634
same,"Bacterial load from skin specimens, established infection model","[2]; 1% ointment 24 hours after infection, animal 6",407784986
same,"Bacterial load from skin specimens, established infection model","[2]; 1% ointment 24 hours after infection, animal 7",586080586
same,"Bacterial load from skin specimens, established infection model","[2]; 1% ointment 24 hours after infection, animal 8",58441558
same,"Reduction of S. aureus MW2 vs vehicle, established infection model",[2]; 1% w/w ointment,0.85 log
same,"bacterial load in skin, Sup. Fig. 12","[2]; 1%, animal 1",3454231
same,"bacterial load in skin, Sup. Fig. 12","[2]; 1%, animal 2",9594096
same,"bacterial load in skin, Sup. Fig. 12","[2]; 1%, animal 3",4268293
same,"bacterial load in skin, Sup. Fig. 12","[2]; 1%, animal 4",37383178
same,"bacterial load in skin, Sup. Fig. 12","[2]; 1%, animal 5",4592423
same,"bacterial load in skin, Sup. Fig. 12","[2]; 1%, animal 6",4992200
same,"bacterial load in skin, Sup. Fig. 12","[2]; 1%, animal 7",5211726
same,"bacterial load in skin, Sup. Fig. 12","[2]; 1%, animal 8",8092486
same,"Bacterial load from skin specimens, established infection model","[2]; 2% ointment 24 hours after infection, animal 1",198248802
same,"Bacterial load from skin specimens, established infection model","[2]; 2% ointment 24 hours after infection, animal 2",54495913
same,"Bacterial load from skin specimens, established infection model","[2]; 2% ointment 24 hours after infection, animal 3",66006601
same,"Bacterial load from skin specimens, established infection model","[2]; 2% ointment 24 hours after infection, animal 4",87431694
same,"Bacterial load from skin specimens, established infection model","[2]; 2% ointment 24 hours after infection, animal 5",13757524
same,"Bacterial load from skin specimens, established infection model","[2]; 2% ointment 24 hours after infection, animal 6",41237113
same,"Bacterial load from skin specimens, established infection model","[2]; 2% ointment 24 hours after infection, animal 7",64923354
same,"Bacterial load from skin specimens, established infection model","[2]; 2% ointment 24 hours after infection, animal 8",70546737
same,"Reduction of S. aureus MW2 vs vehicle, established infection model",[2]; 2% w/w ointment,1.8 log
same,"bacterial load in skin, Sup. Fig. 12","[2]; 2%, animal 1",3143418
same,"bacterial load in skin, Sup. Fig. 12","[2]; 2%, animal 2",1148325
same,"bacterial load in skin, Sup. Fig. 12","[2]; 2%, animal 3",935065
same,"bacterial load in skin, Sup. Fig. 12","[2]; 2%, animal 4",898204
same,"bacterial load in skin, Sup. Fig. 12","[2]; 2%, animal 5",917874
same,"bacterial load in skin, Sup. Fig. 12","[2]; 2%, animal 6",1020408
same,"bacterial load in skin, Sup. Fig. 12","[2]; 2%, animal 7",1787044
same,"bacterial load in skin, Sup. Fig. 12","[2]; 2%, animal 8",4694836
same,Histopathology of treated skin,[3],"more intact epidermis, reduced numbers of PMN and MN (less inflammation), and no bacterial biofilm patches"
